Converted amounts (≈) assume the structure as drawn.
Tests used:
Experiment in all cases: MIC (Minimum Inhibitory Concentration) determination, broth dilution in 96-well plates
Type in all cases: cell-based
[1] = test system: Staphylococcus aureus FDA486; conditions: LB broth, aerobic, 37° C., 24 h, cells at t = 0 ˜10^6/ml; for MIC: Staphylococcus aureus, FDA486, read-out: Antibacterial activity, MIC, Staph. aureus FDA486
Protocol: (§1) The fusidic acid analogues of the invention and the reference compounds 201 (fusidic acid (as the sodium salt)), 207, 205 203 and 206 (see notes to Table A) were stored in powder form at +4° C. When used in assays, they were dissolved in 95% EtOH (3.84 mg/ml) and kept for a maximum of 1 month at −20° C. before being discarded. [table] LB media (per 1000 ml ddH2O: 10 g Bacto-tryptone, 5 g yeast extract, 10 g NaCl). THB (Todd-Hewitt Broth) media, SIGMA, product number: T1438 (per 1000 ml ddH2O: 50 g Beef-Heart Infusion, 20 g Casein peptone, 2 g Dextrose, 2 g NaHCO3, 2.5 g NaCl, 0.4 g Na2HPO4). Plates were made using an agar concentration of 1.5%. Blood-agar plates contained an additional 5% (v/v) defibrinated horse blood purchased from SLU (Swedish Agricultural University), Uppsala. MIC tests on the compounds were done in 96-well micro titer plates (Thermo Labsystems). 4×10^5 bacteria were inoculated in 0.4 ml growth media (S. aureus, LB broth, S. pyogenes—TH broth) containing serial dilutions of the compound to be tested starting from 128 μg/ml (dilution factor 2, e.g. 128 μg/ml, 64 μg/ml, . . . , 0.016 μg/ml). The criterion for sensitivity is no visible growth after a 24 h, aerobic incubation at 37° C. Each compound was tested at least twice, and fusidic acid was always included as an experimental control. [table]

[2] = test system: Staphylococcus aureus 8325-4; conditions: LB broth, aerobic, 37° C., 24 h, cells at t = 0 ˜10^6/ml
Protocol: as §1

[3] = test system: Staphylococcus aureus CJ12; conditions: LB broth, aerobic, 37° C., 24 h, cells at t = 0 ˜10^6/ml; for MIC: Staphylococcus aureus, CJ12, read-out: Antibacterial activity, MIC, Staph. aureus CJ12
Protocol: as §1

[4] = test system: Streptococcus pyogenes DA7121; conditions: TH broth, aerobic, 37° C., 24 h, cells at t = 0 ˜10^6/ml; for MIC: Streptococcus pyogenes, DA7121, read-out: Antibacterial activity, MIC, Strep. pyogenes DA7121
Protocol: as §1

[5] = test system: Streptococcus pyogenes DA7864; conditions: TH broth, aerobic, 37° C., 24 h, cells at t = 0 ˜10^6/ml; for MIC: Streptococcus pyogenes, DA7864, read-out: Antibacterial activity, MIC, Strep. pyogenes DA7864
Protocol: as §1

Molecule	Antibacterial activity, MIC, Staph. aureus FDA486 [1] [µg/mL]	Antibacterial activity, MIC, Staph. aureus 8325-4 [2] [µg/mL]	Antibacterial activity, MIC, Staph. aureus CJ12 [3] [µg/mL]	Antibacterial activity, MIC, Strep. pyogenes DA7121 [4] [µg/mL]	Antibacterial activity, MIC, Strep. pyogenes DA7864 [5] [µg/mL]	MIC [1] [µg/mL]	MIC [3] [µg/mL]	MIC [4] [µg/mL]	MIC [5] [µg/mL]	MIC ([2]; Staphylococcus aureus, 83254, read-out: Antibacterial activity, MIC, Staph. aureus 8325-4) [µg/mL]
24-bromo-16-deacetoxy-16β-ethoxy-fusidic acid [Compound 116]	0.44	0.11	0.06	7	7	–	–	–	–	–
24-bromo-17S,20S-dihydrofusidic acid [Compound 115]	0.88	0.11	0.06	1.8	1.8	–	–	–	–	–
24-bromo-17S,20S-methylene-fusidic acid [Compound 122]	0.88	0.88	0.22	7	7	–	–	–	–	–
CC(=O)O[C@H]1C[C@@]2(C)[C@@H](C[C@@H](O)[C@H]3[C@@]4(C)CC[C@@H](O)[C@@H](C)[C@@H]4CC[C@@]32C)/C1=C(\CCC(Br)=C(C)C)C(=O)O [Compound 108, 24-bromo-fusidic acid]	0.05	–	0.03	0.8	0.8	–	–	–	–	–
CC(C)=C(Br)CC/C(C(=O)O)=C1\C2C[C@@H](O)C3[C@@]4(C)CC[C@@H](O)[C@@H](C)C4CC[C@]3(C)[C@@]2(C)C[C@@H]1[S+]([O-])C(C)C (stereo partly drawn) [Compound 113, 24-bromo-16-deacetoxy-16β-isopropylsulfinyl-fusidic acid]	–	–	–	–	–	0.22 (≈ 0.35 µM)	0.11 (≈ 0.175 µM)	0.4 (≈ 0.637 µM)	0.4 (≈ 0.637 µM)	–
CC(=O)O[C@H]1C[C@@]2(C)[C@@H](C[C@@H](O)[C@H]3[C@@]4(C)CC[C@@H](O)[C@@H](C)[C@@H]4CC[C@@]32C)/C1=C(\CCC=C(C)C)C(=O)O [Ref. comp. 201, Fusidic acid]	–	–	–	–	–	0.11 (≈ 0.213 µM)	0.03 (≈ 0.0581 µM)	3.5 (≈ 6.77 µM)	3.5 (≈ 6.77 µM)	0.03 (≈ 0.0581 µM)
CCO[C@H]1C[C@@]2(C)[C@@H](C[C@@H](O)[C@H]3[C@@]4(C)CC[C@@H](O)[C@@H](C)[C@@H]4CC[C@@]32C)/C1=C(\CCC=C(C)C)C(=O)O [Ref. comp. 203, 16-Deacetoxy-16β-ethoxy-fusidic acid]	0.22	0.22	0.06	7	14	–	–	–	–	–
CC(=O)OC1CC2(C)C(CC(O)C3C4(C)CCC(O)C(C)C4CCC32C)C1C(CCC=C(C)C)C(=O)O (stereo not drawn) [Ref. comp. 205, 17S,20S-Dihydrofusidic acid]	0.44	0.11	0.06	14	28	–	–	–	–	–
CC(=O)O[C@H]1C[C@@]2(C)[C@@H](C[C@@H](O)[C@H]3[C@@]4(C)CC[C@@H](O)[C@@H](C)[C@@H]4CC[C@@]32C)[C@]12C[C@]2(CCC=C(C)C)C(=O)O [Ref. comp. 206, 17S,20S-Methylene-fusidic acid]	0.22	0.11	0.06	>32	28	–	–	–	–	–
CC(C)=CCC/C(C(=O)O)=C1/[C@@H]([S+]([O-])C(C)C)C[C@@]2(C)[C@H]1C[C@@H](O)[C@H]1[C@@]3(C)CC[C@@H](O)[C@@H](C)[C@@H]3CC[C@@]12C (stereo partly drawn) [Ref. comp. 207, 16-Deacetoxy-16β-isopropylsulfinyl-fusidic acid]	0.22	–	0.05	1.6	1.6	–	–	–	–	–
